In ChEMBL document CHEMBL4613287, “Glycomimetic Based Approach toward Selective Carbonic Anhydrase Inhibitors” (ACS Med Chem Lett, 2020):

Columns and labels:
[1] = target: Carbonic anhydrase 1 (Homo sapiens, UniProt P00915); experiment: Inhibition of recombinant human carbonic anhydrase 1 preincubated with enzyme for 15 mins by phenol red dye based stopped flow CO2 hydration assay
[2] = target: Carbonic anhydrase 2 (Homo sapiens, UniProt P00918); experiment: Inhibition of recombinant human carbonic anhydrase 2 preincubated with enzyme for 15 mins by phenol red dye based stopped flow CO2 hydration assay
[3] = target: Carbonic anhydrase 7 (Homo sapiens, UniProt P43166); experiment: Inhibition of recombinant human carbonic anhydrase 7 preincubated with enzyme for 15 mins by phenol red dye based stopped flow CO2 hydration assay
[4] = target: Carbonic anhydrase 9 (Homo sapiens, UniProt Q16790); experiment: Inhibition of recombinant human carbonic anhydrase 9 preincubated with enzyme for 15 mins by phenol red dye based stopped flow CO2 hydration assay
[5] = target: Carbonic anhydrase 12 (Homo sapiens, UniProt O43570); experiment: Inhibition of recombinant human carbonic anhydrase 12 preincubated with enzyme for 15 mins by phenol red dye based stopped flow CO2 hydration assay
Carbonic anhydrase 12, sequence (O43570 whole entry): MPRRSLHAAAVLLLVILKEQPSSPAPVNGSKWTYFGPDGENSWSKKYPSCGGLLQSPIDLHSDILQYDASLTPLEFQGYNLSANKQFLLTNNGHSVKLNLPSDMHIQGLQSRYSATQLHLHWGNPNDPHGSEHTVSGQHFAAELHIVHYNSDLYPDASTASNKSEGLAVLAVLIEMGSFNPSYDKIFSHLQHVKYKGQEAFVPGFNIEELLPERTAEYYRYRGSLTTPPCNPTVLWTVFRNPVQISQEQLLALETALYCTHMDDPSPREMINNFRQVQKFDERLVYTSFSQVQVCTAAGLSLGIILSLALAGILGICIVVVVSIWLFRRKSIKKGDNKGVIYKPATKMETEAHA

Carbonic anhydrase 7, sequence (P43166 whole entry): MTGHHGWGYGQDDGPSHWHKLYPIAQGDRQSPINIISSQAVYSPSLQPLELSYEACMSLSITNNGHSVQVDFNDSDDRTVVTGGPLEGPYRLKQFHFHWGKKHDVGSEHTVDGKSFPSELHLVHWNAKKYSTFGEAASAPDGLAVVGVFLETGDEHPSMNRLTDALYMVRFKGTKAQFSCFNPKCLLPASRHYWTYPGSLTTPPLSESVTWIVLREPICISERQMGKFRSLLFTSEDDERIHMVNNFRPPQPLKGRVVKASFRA
Carbonic anhydrase 1, sequence (P00915 whole entry): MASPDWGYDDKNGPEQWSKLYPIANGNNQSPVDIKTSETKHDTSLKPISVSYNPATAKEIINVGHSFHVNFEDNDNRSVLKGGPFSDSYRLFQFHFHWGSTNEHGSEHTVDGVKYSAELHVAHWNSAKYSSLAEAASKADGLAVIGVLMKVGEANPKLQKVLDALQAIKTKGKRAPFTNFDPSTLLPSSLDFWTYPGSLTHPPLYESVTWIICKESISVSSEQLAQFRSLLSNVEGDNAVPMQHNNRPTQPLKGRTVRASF

Ki [1] [nM]	Ki [2] [nM]	Ki [3] [nM]	Ki [4] [nM]	Ki [5] [nM]	SMILES
2880	80.3	7.4	2980	541	CC1(C)O[C@H]2[C@H](O)CN(CCCCCCn3cc(CNc4ccc(S(N)(=O)=O)cc4)nn3)C[C@H]2O1
956	801	31.2	35.9	770	CC1(C)O[C@H]2[C@H](O)[C@H]([C@H]3[C@H](O)[C@H]4OC[C@@H](O4)[C@H]3O)N(CCCCCCn3cc(CNc4ccc(S(N)(=O)=O)cc4)nn3)C[C@H]2O1
